Results reported in US20190227072A1, “Biomarkers for Carcinogenesis and Uses Thereof” (GEORGETOWN UNIVERSITY, priority 2016, published 2019).
Entries after “also recorded” stand apart in the source; their conditions may differ. Values belong to the compound of their own block, whether it stands above or below them.

Key:
[1] = tested on: HepG2 cells; assay: DHHεdA formation in HepG2 cellular DNA after EH or AA treatment, LC-MS/MS-MRM; type: cell-based, human; conditions: 24 h
Experimental: HepG2 cells (#HB-8065, ATCC, Manassas, Va.) were grown in complete DMEM (#10-013, Corning Life Sciences, Tewksbury, Mass.) until 85-90% confluent. Cells were treated with a final concentration of 100 μM or 300 μM of either arachidonic acid (AA) or EH solubilized in 70% EtOH for 24 h. Cells were then scraped down in media and transferred to a centrifuge tube and spun for 3000 rpm for 5 min. The pellet was washed 2× with 1×PBS, centrifuging between washes. DNA was then isolated from the cells and prepared for LC-MS/MS-MRM, after enzymatic hydrolysis as described above.
DNA was isolated by a QIAGEN Blood and Cell Culture DNA Maxi Kit (#13362, QIAGEN Inc., Valencia, Calif.) using the protocol recommended by the manufacturer. For hydrolysis, dry DNA (50 to 1000 μg) was dissolved in 5 mM magnesium chloride and 0.5 mM GSH solution (1 mL per 1 mg of DNA), then 50 fmol of [^15N5]-DHHεdA 1,2 and 50 fmol of [^15N5]-DHHεdA 3,4 were added as internal standards. DNA was hydrolyzed by incubation with DNase I (1300 units per mg of DNA, #D4527-40KU, Sigma-Aldrich, St. Louis, Mo.) for 30 min at 37° C., followed by a second addition of DNase I (1300 units per mg of DNA) and incubation for an additional 10 min at 37° C. Finally, phosphodiesterase I (0.06 units per mg DNA, #P3243-1VL, Sigma-Aldrich, St. Louis, Mo.), alkaline phosphatase (380 units per mg DNA, #10 108 146 001, Roche Diagnostic GmbH, Mannheim, Germany) and adenosine deaminase (0.5 units, #LS009043, Worthington Biochemical Corporation, Lakewood, N.J.) were added and the sample was incubated for 60 min at 37° C. After hydrolysis, a small portion of the hydrolysate was saved for further T quantification, and the remaining sample was purified using Phenomenex Strata-X 33μ 30 mg/1 mL polymeric reverse phase solid phase extraction columns (#8B-S100-TAK, Phenomenex, Torrance, Calif.). Before loading, samples columns were washed by ACN (3×1 mL) and stabilized by 25 mM ammonium formate pH=4.00 (3×1 mL). After loading, DNA hydrolysate columns were washed by 2.5% ACN in 25 mM ammonium formate pH=4.00 (1×1 mL), 5% ACN in 25 mM ammonium formate pH=4.00 (1×1 mL), followed by DHHεdA collection by 30% ACN in 25 mM ammonium formate pH=4.00 (1×1 mL). The DHHεdA fraction was dried using a SpeedVac rotary concentrator, re-dissolved in 400 μL 1:1 water:ACN, transferred to HPLC vials, dried and kept at −20° C. Before quantification, samples were dissolved in 60 μL of water and 37 μL was injected on LC-MS.
Quantification was carried out on a SCIEX 6500 QTRAP triple quadrupole mass spectrometer (AB Sciex LLC, Framingham, Mass.) interfaced with a Waters ACQUITY UPLC liquid chromatography system equipped with Waters ACQUITY UPLC BEH C18 50×2.1 mm, 1.7 μm particle size column (Waters Corporation, Milford, Mass.). The separation of adducts was performed isocratically by eluting with 13.5% ACN, 1 mM ammonium formate buffer over 6.5 min using 0.5 mL/min flow rate at 40° C., followed by 100% ACN wash. The ESI source operated in positive mode. The MRM experiment was performed using ion transitions of 406.2-290.2 m/z (DHHεdA) and 411.2-295.1 m/z ([^15N5]-DHHεdA) with CE of 28 eV for quantification, and those of 406.2-160.1 m/z (DHHεdA) and 411.2-165.0 m/z ([^15N5]-DHHεdA) with a CE of 76 eV were used for structural confirmation. All other parameters were optimized to achieve maximum signal intensity. Calibration curves were constructed for two HPLC resolved peaks before each analysis using standard solutions of DHHεdA and [^15N5]-DHHεdA. A constant concentration of [^15N5]-DHHεdA (1 fmol/μL) was used with different concentrations of DHHεdA (3.3 amol/μL-65 fmol/μL) and analyzed using 37 μL injections by LC-MS/MS-MRM. The standard curves were linear in the range from 0.37 to 800 fmol of DHHεdA on column for both peaks (1/x weighting; r^2=0.9998 and r^2=0.9984 for both LC resolved pairs of DHHεdA stereoisomers 1,2 and 3,4 respectively). […]

[2] = tested on: Primary human hepatocytes; assay: FACS detection of DHHεdA in nuclei of EH-treated primary human hepatocytes; type: cell-based; conditions: 300 μM EH
Experimental: Primary human hepatocytes (#HUFS1M, Lot#HUM4132, Triangle Research Labs, Durham, N.C.) were cultured in hepatocyte media (#5201, ScienCell Research Laboratories, San Diego, Calif.) until 85-90% confluent. Cells were then treated with a final concentration of 300 μM EH dissolved in 70% EtOH, added to the culture media. The cells were collected at the designated time points following EH treatment: 0, 4, 8, 12 and 24 h. The nuclei were extracted using Nuclei EZ Prep Nuclei Isolation Kit (#NUC-101, Sigma-Aldrich, St. Louis, Mo.) and fixed with 3.7% formaldehyde for 10 min. The nuclei were then prepared for FACS analysis using the method shown previously.
The geometric mean of the fluorescence intensity of Alexa Fluor 488-labeled DHHεdA positive cells was measured using FACS. The output values of triplicate control and EH treatment groups (see above) were averaged and the standard deviation was calculated using Excel. Additionally, a Student's t-test was performed to determine significance by comparing the triplicate values for the control group to those of the EH treated group for each individual time point of 4, 8, 12, and 24 h.

[3] = tested on: Xpa−/− mice; assay: 32-week bioassay of Xpa−/− mice fed antioxidant diets, γ-OHPdG by LC-MS/MS; type: in vivo; conditions: for liver γ-OHPdG levels: antioxidant diet vs control diet, liver DNA, LC-MS/MS; for γ-OHPdG levels in the lungs: antioxidant diet, lung (non-target organ)
Text: All of the mice were housed in a temperature-controlled, light-regulated space with 12-hour light and dark cycles and were given unrestricted access to food and water throughout the experiments. […] The animals were fed with AIN-76A powder diets obtained from Dyets, Inc. (Bethlehem, Pa.) at the age of 4 weeks; four types of diets (control, α-lipoic acid, Theaphenon E and vitamin-E) were used in this study. The only difference between the diets is the sucrose content to be replaced by the antioxidant (Table 1: the doses of the antioxidants, α-lipoic acid (2 g/kg), Theaphenon E (20 g/kg) and vitamin E (1.8 g/kg)), were selected according to recent studies, respectively. The nutrition for all the four diets was calculated within the range of 3694 to 3766 kcal/kg. […] The liver tissues were dissected and kept at −80° C. until usage for DNA isolation.
DNA (100-500 μg) was dissolved in 5 mM magnesium chloride (800 μL per mg DNA) and spiked with 100 fmol of [^13C10,^15N5]-γ-OHPdG and 50 fmol of [^13C10,^15N5]−/− OHPdG. Enzymatic hydrolysis was performed by incubation with DNase I (1300 units/mg DNA) at 37° C. for 30 min followed by a second addition of DNase I (1300 units/mg DNA). After an additional 10 min at 37° C., alkaline phosphatase (380 units/mg DNA), phosphodiesterase I (0.06 units/mg DNA) and adenosine deaminase (0.5 units) were added, and the mixture was incubated for 1 h. After digestion a small aliquot of hydrolysate was used for dG quantification and the remaining digest was purified by solid phase extraction (SPE) using polymeric C18, 30 mg/1 mL, Strata-X columns (Phenomenex, Inc., Torrance, Calif.). Prior to use, the columns were conditioned by ACN (3×1 mL) and 25 mM ammonium formate buffer pH=4 (3×1 mL). After sample loading, the columns were washed with 2.5% ACN in 25 mM ammonium formate buffer pH=4 (1×1 mL). Then, γ-OHPdG adducts were collected by eluting with 5% ACN in 25 mM ammonium formate buffer pH=4 (1×1 mL). Samples were dried over vacuum using a SpeedVac and kept at −80° C. Before quantification assay samples were reconstituted with 50 μl of water, and 37 μL of sample was injected onto LC-MS/MS.
Detection and quantification of γ-OHPdG adducts was carried on AB SCIEX 6500 QTrap triple quadrupole mass spectrometer (SCIEX, Framingham, Mass.) coupled with an ACQUITY UPLC liquid chromatography system (Waters Corporation, Milford, Mass.) equipped with 50×2.1 mm, 1.7 m particle size C18 column (Waters ACQUITY UPLC BEH C18). The separation of adducts was performed isocratically by eluting with 3% ACN, 1 mM ammonium formate buffer over 3.5 min using 0.5 mL/min flow rate at 40° C., followed by 100% ACN wash. The ESI source operated in positive mode. The multiple reaction monitoring (MRM) experiment was performed using ion transitions of 324.2-208.1 m/z (γ-OHPdG) and 339.2-218.1 m/z ([^13C10,^15N5]-γ-OHPdG) with a collision energy (CE) of 20 eV for quantification, and those of 324.2-190.1 m/z (γ-OHPdG) and 339.2-200.1 m/z ([^13C10,^15N5]-γ-OHPdG) with a CE of 47 eV for structural confirmation. All other parameters were optimized to achieve maximum signal intensity.

[4] = tested on: Xpa−/− mice; assay: 72-week tumor bioassay of Xpa−/− mice fed antioxidant diets; type: in vivo; conditions: 72 weeks on diet, control diet 100%
Text: C3H/HeN.Xpa^−/− mice were created by crossing C57/B6. Xpa^−/− mice with C3H/HeN mice. The resulting heterozygous mice were then backcrossed to C3H mice for five generations. Mice homogeneous for the Xpa-null allele on a C3H background were subsequently generated by brother-sister mating. All of the mice were housed in a temperature-controlled, light-regulated space with 12-hour light and dark cycles and were given unrestricted access to food and water throughout the experiments. […] The animals were fed with AIN-76A powder diets obtained from Dyets, Inc. (Bethlehem, Pa.) at the age of 4 weeks; four types of diets (control, α-lipoic acid, Theaphenon E and vitamin-E) were used in this study. The only difference between the diets is the sucrose content to be replaced by the antioxidant (Table 1: the doses of the antioxidants, α-lipoic acid (2 g/kg), Theaphenon E (20 g/kg) and vitamin E (1.8 g/kg)), were selected according to recent studies, respectively. The nutrition for all the four diets was calculated within the range of 3694 to 3766 kcal/kg. (n=6-7 for time dependent DNA adduct assay, n=18-19 for tumor bioassay after 72 weeks under different diets (see Table 4)). […] Xpa^−/− mice were fed with four types of diets (control, Theaphenon E, α-lipoic acid, and vitamin E) for 72 weeks.

- DHHεdA peak 1 ([1]; HepG2, low dose (100 μM)): bdl
- DHHεdA peak 2 ([1]; HepG2, low dose (100 μM)): bdl
- Total DHHεdA ([1]; HepG2, low dose (100 μM)): bdl
Compound: CCCCC/C=C\C/C=C\C/C=C\C/C=C\CCCC(=O)O [AA, arachidonic acid]

Compound: CCCCCC(O)C1OC1C=O (centres unmarked) [EH, 2,3-epoxy-4-hydroxynonanal]
- DHHεdA peak 1 ([1]; human, 100 μM): 14.1 adducts/T × 10^9
- DHHεdA peak 2 ([1]; human, 100 μM): 139.4 adducts/T × 10^9
- Total DHHεdA ([1]; human, 100 μM): 153.5 adducts/T × 10^9
- DHHεdA peak 1 ([1]; human, 300 μM): 186.6 adducts/T × 10^9
- DHHεdA peak 2 ([1]; human, 300 μM): 2043.8 adducts/T × 10^9
- Total DHHεdA ([1]; human, 300 μM): 2230.4 adducts/T × 10^9
- cell death ([2]; 24 h): less than 20%
- mean fluorescence intensity of DHHεdA in nuclei (FACS, 3C9C9) ([2]; 4, 8, 12 and 24 h vs control): significant difference between control and EH treated cells for every time point

Compound: O=C(O)CCCCC1CCSS1 (stereo not drawn) [α-lipoic acid]
- liver γ-OHPdG levels [3]: effectively decreased; also recorded: significant decrease
- γ-OHPdG levels in the lungs [3]: no significant changes
- HCC incidence [4]: 65%

Compound: vitamin E
- liver γ-OHPdG levels [3]: but not vitamin E, effectively decreased; also recorded: significant decrease
- γ-OHPdG levels in the lungs [3]: no significant changes
- HCC incidence [4]: no significant effect
